Literature values as cited in US10238678B2, “Therapeutic methods” (GlaxoSmithKline LLC, priority 2011, dated 2019).

SMILES: NC(=O)c1ncn([C@@H]2O[C@H](CO)[C@@H](O)[C@H]2O)n1 [Ribavirin]
- patients with significant hemolysis (currently recommended doses): 10-20%
- teratogenicity and embryotoxicity (in vivo): teratogenic and embryotoxic
